Experimental data from patent US20120094894A1, “ANTIDIABETIC MEDICATIONS COMPRISING A DPP-4 INHIBITOR (LINAGLIPTIN) OPTIONALLY IN COMBINATION WITH OTHER ANTIDIABETICS” (BOEHRINGER INGELHEIM INTERNATIONAL GMBH, priority 2009, published 2012).

Key:
[1] = metformin on its own, in the diabetic; cited from earlier work
DIO mice [2] = experiment: Liver fat content by magnetic resonance spectroscopy (MRS) in diet-induced obesity model; format: in vivo
Text: Hepatic steatosis is a hallmark of patients with type 2 diabetes and underlies the pathogenesis of non-alcoholic fatty liver disease (NAFLD). Linagliptin is a selective and non-renal excreted inhibitor of dipeptidyl peptidase-4 (DPP-4). […]. Liver lipid content is detected by magnetic resonance spectroscopy (MRS) in vivo and ex vivo by analysis of liver triglycerides. […]. […] A significant reduction of liver fat content (MRS) is visible as early as 2 weeks on treatment. The correlation between liver lipid content as measured by MRS and hepatic triglyceride levels as measured ex vivo is r2=0.565 (p<0.0001).

ob/ob mice [3] = experiment: Blood glucose AUC in ob/ob mice after 14 d linagliptin; settings: 3 mg/kg/d
DIO mice [4] = experiment: Blood glucose following OGTT (AUC) in diet-induced obesity model; format: in vivo; settings: 4 weeks, p<0.01
ob/ob mice [5] = experiment: Blinded histological scoring of liver (fat content, markers of inflammation) in ob/ob mice; settings: 3 mg/kg/d, 14 d, n=9, p<0.01 vs. control 3±0.18

Compound | Average improvement in the HbA1c value [1] | Time on treatment at which significant reduction of liver fat content (MRS) is visible (DIO mice [2]; DIO mice) [weeks] | Liver fat content (MRS detection) (DIO mice [2]; DIO mice fed 2 or 3 months, 30 mg/kg/d, and 3 mg/kg/d in 3 month fed mice, 4 weeks) | Blood glucose AUC reduction (ob/ob mice [3]) [%] | Blood glucose levels following an OGTT (AUC) suppressed (DIO mice [4]; 3 mg/kg/d) | Blood glucose levels following an OGTT (AUC) suppressed (DIO mice [4]; 30 mg/kg/d) | Histological score (hepatic steatosis and inflammation) (ob/ob mice [5])
CN(C)C(=N)N=C(N)N [metformin] | 1.0-1.5% | – | – | – | – | – | –
CC#CCn1c(N2CCC[C@@H](N)C2)nc2c1c(=O)n(Cc1nc(C)c3ccccc3n1)c(=O)n2C [linagliptin, 1-[(4-methyl-quinazolin-2-yl)methyl]-3-methyl-7-(2-butyn-1-yl)-8-(3-(R)-amino-piperidin-1-yl)-xanthine] | – | 2 | reduced significantly | 25 | 16%-20% | 20%-26% | 2.2±0.13
